# Assays:
# S. epidermidis = test: Growth of S. epidermidis in the presence of a single amino acid as supplement; format: cell-based; details: 0.1% individual amino acid in 10% TSB + 1% glucose, 37° C., 24 hrs, absorbance at 600 nm normalized to control without amino acid; for activity at 0.1 %: Staphylococcus epidermidis
# Description: The growth of the above commensal bacteria due to the presence of each of the twenty different amino acids separately was studied. All 20 L-amino acids were procured from Hi media. The stocks were prepared in distilled water and filter sterilized by passing it through 0.22 μm filter. A 100 mM sodium phosphate buffer pH 7.4 was prepared and filter sterilized. Reaction was set up in a 96 well flat bottom transparent plate. […] The final concentration of individual amino acid was 0.1%. Each reaction was set up in triplicates. The plate was incubated at 37° C. under stationary conditions for 24 hrs. After 24 hrs, the absorbance of the plate was measured at 600 nm using TECAN plate reader. The absorbance values were then normalized to control (S. epidermidis grown in 10% TSB+1% glucose).
# S. aureus = test: Growth kinetics of S. aureus with individual amino acids; format: cell-based; details: 0.1 wt % individual amino acid; for inhibition of S. aureus (in words): among the seven selected; for Absorbance at 600 nm: S. aureus, growth till 20 hours
# Description: In order to identify a set of amino acids which are major contributors to the higher growth rate of S. aureus in Mix 7, growth kinetics experiments were carried out with all seven individual amino acids. […] The experiment was carried out for growth till 20 hours. They were carried out at 0.1 wt % concentration of the individual amino acid.
SMILES,activity at 0.1 % (S. epidermidis) [%],inhibition of S. aureus (in words) (S. aureus),Absorbance at 600 nm (S. aureus),% growth (S. epidermidis) [%]
"N[C@@H](CO)C(=O)O [Example 1P, Serine]",134,maximum inhibition,0.504,
"CC[C@H](C)[C@H](N)C(=O)O [Example 1J, Isoleucine]",99,,,
"C[C@@H](O)[C@H](N)C(=O)O [Example 1R, Threonine]",126,,0.697,
"CC(C)[C@H](N)C(=O)O [Example 1T, Valine]",96,,,
"CC(N)C(=O)O (stereo not drawn) [Example 1A, Alanine]",139,maximum inhibition,0.447,
"NCC(=O)O [Example 1F, Glycine]",,,0.863,135
"N[C@@H](Cc1c[nH]cn1)C(=O)O [Example 11, Histidine]",96,,,
"NC(CS)C(=O)O (stereo not drawn) [Example 1E, Cysteine]",121,maximum inhibition,0.476,
"N[C@@H](Cc1ccc(O)cc1)C(=O)O [Example 1Q, Tyrosine]",120,maximum inhibition,0.478,
"CC(C)C[C@H](N)C(=O)O [Example 1K, Leucine]",96,,,
"NC(CC(=O)O)C(=O)O (stereo not drawn) [Example 1D, Aspartic acid]",121,maximum inhibition,0.540,
"NC(=O)CC[C@H](N)C(=O)O [Example 1H, Glutamine]",109,,,
"NC(=O)C[C@H](N)C(=O)O [Example 1C, Asparagine]",113,,,
"O=C(O)[C@@H]1CCCN1 [Example 1O, Proline]",93,,,
"CSCC[C@H](N)C(=O)O [Example 1M, Methionine]",87,,,
